Values quoted from earlier work, collected in US20070178172A1, “Composition for reducing blood lipids” (MAXLUCK BIOTECHNOLOGY CORP., priority 2004, published 2007).

System: obesity mouse
Settings: Cefalu et al. 2002

chromium picolinate
effect on blood lipids: could reduce the blood lipids
